Laboratory results: patent publication US8673906B2, “Chromenone derivatives” (AstraZeneca AB, priority 2010, dated 2014)

molecular target: PI3Kβ (Homo sapiens (Human), UniProt P42338); assay: In vitro enzyme inhibition assay (Kinase Glo based enzyme activity assay); assay type: biochemical; details: Test (a), human recombinant enzyme; read-out: PI3Kβ inhibition, IC50
Description: (a) In Vitro Enzyme Inhibition Assay
The inhibition of PI3Kβ, PI3Kα, PI3Kγ and PI3Kδ was evaluated in a Kinase Glo based enzyme activity assay using human recombinant enzymes. The assay measures depletion of ATP after incubation with enzyme, PIP2 and ATP plus compound. ATP at the end of the reaction is detected by addition of Kinase Glo reagent, in this the Ultra Glo™ luciferase (Promega) uses the ATP as a substrate to catalyze the mono-oxygenation of luciferin and the generation of light. A direct relationship exists between the luminescence measured with the Kinase-Glo Plus Reagent and the amount of ATP remaining in a completed kinase reaction and luminescence is inversely related to kinase activity. Twelve different compound concentrations were tested and raw data from the inhibition of PI3 Kb, PI3Kα, PI3Kγ and PI3Kδ was plotted versus inhibitor concentration.
Compounds in 100% DMSO were added to assay plates by acoustic dispensing. PI3Kβ was added in a Tris buffer (50 mM Tris pH7.4, 0.05% CHAPS, 2.1 mM DTT, and 10 mM MgCl2) and allowed to preincubate with compound for 20 minutes prior to addition of substrate solution containing PIP2 and ATP. The enzyme reaction was stopped after 80 minutes by the addition of Kinase Glo detection solution. Plates were left for 30 minutes at room temperature then read on a Pherastar Instrument (Luminescence ATP 384 program) setting gain on max well. The final concentration of DMSO, ATP and PIP2 in the assay were, 1%, 80 μM, and 80 μM respectively.
IC50 values were calculated using a log curve fitting to a non-linear regression package, fitting raw data to inhibitor concentration.

Sequence of PI3Kβ (P42338 whole entry): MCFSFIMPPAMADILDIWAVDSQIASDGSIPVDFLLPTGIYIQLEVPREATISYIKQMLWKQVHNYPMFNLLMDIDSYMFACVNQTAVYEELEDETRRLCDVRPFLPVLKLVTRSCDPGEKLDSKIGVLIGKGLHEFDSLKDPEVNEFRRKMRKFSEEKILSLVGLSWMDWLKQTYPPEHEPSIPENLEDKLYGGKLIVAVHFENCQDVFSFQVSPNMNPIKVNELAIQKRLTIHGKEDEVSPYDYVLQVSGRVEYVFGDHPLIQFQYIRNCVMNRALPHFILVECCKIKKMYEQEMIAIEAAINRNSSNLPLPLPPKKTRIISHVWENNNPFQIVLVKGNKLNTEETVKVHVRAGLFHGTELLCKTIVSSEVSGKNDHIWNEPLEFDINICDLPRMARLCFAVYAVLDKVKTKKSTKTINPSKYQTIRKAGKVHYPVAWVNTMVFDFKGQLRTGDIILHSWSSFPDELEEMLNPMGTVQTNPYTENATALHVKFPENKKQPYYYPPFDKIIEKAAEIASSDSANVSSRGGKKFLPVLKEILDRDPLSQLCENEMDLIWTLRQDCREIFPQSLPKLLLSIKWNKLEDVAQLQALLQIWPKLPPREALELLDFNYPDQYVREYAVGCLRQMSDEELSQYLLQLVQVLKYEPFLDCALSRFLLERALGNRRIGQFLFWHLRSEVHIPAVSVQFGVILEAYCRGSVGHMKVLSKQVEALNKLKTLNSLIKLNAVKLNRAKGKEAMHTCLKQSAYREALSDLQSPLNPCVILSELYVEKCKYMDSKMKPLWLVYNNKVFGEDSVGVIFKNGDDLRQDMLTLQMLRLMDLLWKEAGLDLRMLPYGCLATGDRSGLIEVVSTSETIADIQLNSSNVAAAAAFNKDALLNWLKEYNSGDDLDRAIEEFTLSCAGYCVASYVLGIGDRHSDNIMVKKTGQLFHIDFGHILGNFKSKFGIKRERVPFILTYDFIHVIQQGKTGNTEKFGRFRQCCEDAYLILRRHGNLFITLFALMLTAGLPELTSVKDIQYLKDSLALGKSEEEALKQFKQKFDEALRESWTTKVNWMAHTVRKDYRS
Sequence of PI3Kβ (P27986 whole entry partner): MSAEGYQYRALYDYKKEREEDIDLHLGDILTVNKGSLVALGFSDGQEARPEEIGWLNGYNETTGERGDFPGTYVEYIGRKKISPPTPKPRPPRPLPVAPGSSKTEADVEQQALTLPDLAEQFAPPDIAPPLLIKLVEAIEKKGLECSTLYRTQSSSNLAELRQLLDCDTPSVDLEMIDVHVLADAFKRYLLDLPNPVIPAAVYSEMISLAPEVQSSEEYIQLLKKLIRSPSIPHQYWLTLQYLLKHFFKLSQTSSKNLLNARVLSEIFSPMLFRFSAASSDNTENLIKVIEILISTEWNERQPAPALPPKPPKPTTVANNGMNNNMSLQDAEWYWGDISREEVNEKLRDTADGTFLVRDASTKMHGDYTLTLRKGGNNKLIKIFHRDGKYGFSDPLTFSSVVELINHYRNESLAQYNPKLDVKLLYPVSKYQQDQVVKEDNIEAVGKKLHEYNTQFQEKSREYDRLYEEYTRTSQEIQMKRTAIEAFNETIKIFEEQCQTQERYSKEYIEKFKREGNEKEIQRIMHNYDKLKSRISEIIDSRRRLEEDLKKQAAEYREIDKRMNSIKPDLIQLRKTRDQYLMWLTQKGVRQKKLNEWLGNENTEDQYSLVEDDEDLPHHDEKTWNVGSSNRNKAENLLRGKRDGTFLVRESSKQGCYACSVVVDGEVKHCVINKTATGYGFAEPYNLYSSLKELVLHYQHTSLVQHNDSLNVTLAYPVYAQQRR

Row | SMILES | IC50 [nM]
1 | CC(Nc1cccc(Cl)c1)c1cc(C(=O)N(C)C)cc2c(=O)cc(N3CCOCC3)oc12 (centres unmarked) [Example 3.09, 8-(1-(3-chlorophenylamino)ethyl)-N,N-dimethyl-2-morpholino-4-oxo-4H-chromene-6-carboxamide] | 4
2 | CC(Nc1cccc(F)c1F)c1cc(C(=O)N(C)C)cc2c(=O)cc(N3CCOCC3)oc12 (centres unmarked) [Example 3.10, 8-(1-(2,3-difluorophenylamino)ethyl)-N,N-dimethyl-2-morpholino-4-oxo-4H-chromene-6-carboxamide] | 4
3 | CC(Nc1cc(F)cc(F)c1F)c1cc(C(=O)N(C)C)cc2c(=O)cc(N3CCOCC3)oc12 (centres unmarked) [Example 3.13, N,N-dimethyl-2-morpholino-4-oxo-8-(1-(2,3,5-trifluorophenylamino)ethyl)-4H-chromene-6-carboxamide] | 6
4 | CC(Nc1cc(F)ccc1F)c1cc(C(=O)N(C)C)cc2c(=O)cc(N3CCOCC3)oc12 (centres unmarked) [Example 3.15, 8-(1-(2,5-difluorophenylamino)ethyl)-N,N-dimethyl-2-morpholino-4-oxo-4H-chromene-6-carboxamide] | 10
5 | Cc1cc(F)cc(NC(C)c2cc(C(=O)N(C)C)cc3c(=O)cc(N4CCOCC4)oc23)c1 (centres unmarked) [Example 3.16, 8-(1-(3-fluoro-5-methylphenylamino)ethyl)-N,N-dimethyl-2-morpholino-4-oxo-4H-chromene-6-carboxamide] | 5
6 | CC(Nc1cccc(C#N)c1)c1cc(C(=O)N(C)C)cc2c(=O)cc(N3CCOCC3)oc12 (centres unmarked) [Example 3.18, 8-(1-(3-cyanophenylamino)ethyl)-N,N-dimethyl-2-morpholino-4-oxo-4H-chromene-6-carboxamide] | 10
7 | CC(Nc1cccc(Cl)c1Cl)c1cc(C(=O)N(C)C)cc2c(=O)cc(N3CCOCC3)oc12 (centres unmarked) [Example 3.19, 8-(1-(2,3-dichlorophenylamino)ethyl)-N,N-dimethyl-2-morpholino-4-oxo-4H-chromene-6-carboxamide] | 5
8 | C#Cc1cccc(NC(C)c2cc(C(=O)N(C)C)cc3c(=O)cc(N4CCOCC4)oc23)c1 (centres unmarked) [Example 3.20, 8-(1-(3-ethynylphenylamino)ethyl)-N,N-dimethyl-2-morpholino-4-oxo-4H-chromene-6-carboxamide] | 5

More lines, now with the values ahead:

Row | IC50 [nM] | SMILES
9 | 114 | Cc1ccc(C#N)cc1NC(C)c1cc(C(=O)N(C)C)cc2c(=O)cc(N3CCOCC3)oc12 (centres unmarked) [Example 3.21, 8-(1-(5-cyano-2-methylphenylamino)ethyl)-N,N-dimethyl-2-morpholino-4-oxo-4H-chromene-6-carboxamide]
10 | 4 | Cc1ccc(F)cc1NC(C)c1cc(C(=O)N(C)C)cc2c(=O)cc(N3CCOCC3)oc12 (centres unmarked) [Example 3.22, 8-(1-(5-fluoro-2-methylphenylamino)ethyl)-N,N-dimethyl-2-morpholino-4-oxo-4H-chromene-6-carboxamide]
11 | 13 | Cc1cc(C#N)cc(NC(C)c2cc(C(=O)N(C)C)cc3c(=O)cc(N4CCOCC4)oc23)c1 (centres unmarked) [Example 3.23, 8-(1-(3-cyano-5-methylphenylamino)ethyl)-N,N-dimethyl-2-morpholino-4-oxo-4H-chromene-6-carboxamide]
12 | 6 | COc1ccc(F)cc1NC(C)c1cc(C(=O)N(C)C)cc2c(=O)cc(N3CCOCC3)oc12 (centres unmarked) [Example 3.24, 8-(1-(5-fluoro-2-methoxyphenylamino)ethyl)-N,N-dimethyl-2-morpholino-4-oxo-4H-chromene-6-carboxamide]
13 | 212 | COc1ccc(C#N)cc1NC(C)c1cc(C(=O)N(C)C)cc2c(=O)cc(N3CCOCC3)oc12 (centres unmarked) [Example 3.25, 8-(1-(5-cyano-2-methoxyphenylamino)ethyl)-N,N-dimethyl-2-morpholino-4-oxo-4H-chromene-6-carboxamide]

same assay, conditions: mean IC50 value calculated from a larger number of replicates; read-out: PI3Kβ inhibition, IC50 (value in brackets)

Row | IC50 [nM] | SMILES
14 | 5 | CC(Nc1cccc(F)c1)c1cc(C(=O)N(C)C)cc2c(=O)cc(N3CCOCC3)oc12 (centres unmarked) [Example 3.12, 8-(1-(3-fluorophenylamino)ethyl)-N,N-dimethyl-2-morpholino-4-oxo-4H-chromene-6-carboxamide]
